One assay concerns the target T1, TRAF6/Uev1A/Ubc13 (Homo sapiens, UniProt Q9Y4K3).
T1 sequence (Q9Y4K3 1-522): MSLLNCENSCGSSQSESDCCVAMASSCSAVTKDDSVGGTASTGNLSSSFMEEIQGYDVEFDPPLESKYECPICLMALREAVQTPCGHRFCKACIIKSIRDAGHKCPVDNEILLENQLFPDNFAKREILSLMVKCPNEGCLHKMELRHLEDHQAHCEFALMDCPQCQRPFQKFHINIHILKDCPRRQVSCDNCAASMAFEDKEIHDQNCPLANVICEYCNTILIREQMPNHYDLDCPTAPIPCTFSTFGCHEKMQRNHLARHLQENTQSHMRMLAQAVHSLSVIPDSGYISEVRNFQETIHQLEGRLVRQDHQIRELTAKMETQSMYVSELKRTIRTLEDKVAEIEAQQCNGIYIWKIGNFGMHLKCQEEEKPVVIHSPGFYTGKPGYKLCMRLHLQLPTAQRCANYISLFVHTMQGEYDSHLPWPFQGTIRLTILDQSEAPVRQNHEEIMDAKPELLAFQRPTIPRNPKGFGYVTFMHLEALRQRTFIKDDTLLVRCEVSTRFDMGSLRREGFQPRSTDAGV
Briefly: TRAF6/Uev1A/Ubc13 plate-based ubiquitin ligase assay. The assay is classed as biochemical. An outline of the steps:
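Ligase activity was read as luminescence from anti-Flag/HRP detection of Flag-ubiquitin bound to casein-blocked Ni-plates alongside His-ubiquitin after a 1 h room-temperature reaction. Buffer: 62.5 mM Tris pH 7.5, 6.25 mM MgCl2, 1.0 mM DTT, 2 μM ATP; E1, Uev1a/Ubc13 and TRAF6 added last to start. IC50s derived across compound concentrations.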

Assay [1] concerns ICAM-1 expression in A549 cells. Put plainly: ICAM assay (IL-1 induced ICAM-1/CD54 expression in A549 cells). In kind it is cell-based, human. Conditions: Homo sapiens, A549, ICAM assay. An outline of the steps: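 Luminescent immunostaining (anti-CD54, then anti-mouse IgG, 1 h) quantifies ICAM-1 on A549 cells induced 4 h at 37° C by IL-1 (4 μl of 25 ng/ml added). Compound is added 1 h before the cytokine to cells plated overnight at 10,000 per well.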

A further assay has as its target APC11/APC2 (Homo sapiens, UniProt Q9NYG5+Q9UJX6). Put plainly: APC-11/APC-2 ligase assay (APC auto ubiquitination). In kind it is biochemical. Particulars: APC assay. An outline of the steps: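 His-tagged APC was captured on nickel plates with human E1 (5 ng/well), UbcH5c (20 ng/well), APC (100 ng/well) and Flag-ubiquitin (100 ng/well) in a Tris pH 7.6 reaction buffer containing 2.5 mM ATP, for 1 hour at room temperature. Read-out was anti-Flag/HRP chemiluminescence. IC50 was set against a DMSO control, typically from 6 or 8 concentrations.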

APC11/APC2, sequence (Q9NYG5 whole entry): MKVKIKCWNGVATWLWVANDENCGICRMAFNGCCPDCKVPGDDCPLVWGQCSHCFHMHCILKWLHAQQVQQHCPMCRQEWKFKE
APC11/APC2, sequence (Q9UJX6 whole entry): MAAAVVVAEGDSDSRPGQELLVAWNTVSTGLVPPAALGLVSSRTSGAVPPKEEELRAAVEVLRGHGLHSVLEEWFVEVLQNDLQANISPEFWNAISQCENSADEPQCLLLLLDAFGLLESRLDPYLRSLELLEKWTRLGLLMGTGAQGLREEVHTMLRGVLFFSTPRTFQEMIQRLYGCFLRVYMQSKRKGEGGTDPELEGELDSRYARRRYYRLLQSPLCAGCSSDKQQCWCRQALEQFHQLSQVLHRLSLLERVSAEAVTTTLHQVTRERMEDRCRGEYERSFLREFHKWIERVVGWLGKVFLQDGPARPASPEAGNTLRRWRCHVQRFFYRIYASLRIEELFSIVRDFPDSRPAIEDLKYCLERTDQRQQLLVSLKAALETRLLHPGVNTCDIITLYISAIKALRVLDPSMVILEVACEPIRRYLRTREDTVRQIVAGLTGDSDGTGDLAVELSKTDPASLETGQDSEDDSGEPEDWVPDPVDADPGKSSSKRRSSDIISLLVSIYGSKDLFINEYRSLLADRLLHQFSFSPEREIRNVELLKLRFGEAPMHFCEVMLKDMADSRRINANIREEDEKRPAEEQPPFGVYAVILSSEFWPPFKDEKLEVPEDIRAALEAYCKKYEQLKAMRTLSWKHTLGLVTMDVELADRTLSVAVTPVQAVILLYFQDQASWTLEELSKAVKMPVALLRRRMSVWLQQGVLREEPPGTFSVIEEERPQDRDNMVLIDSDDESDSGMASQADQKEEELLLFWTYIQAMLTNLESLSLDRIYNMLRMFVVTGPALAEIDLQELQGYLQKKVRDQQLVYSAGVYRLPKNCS

In the case of `Nc1cccc2c(NS(=O)(=O)c3ccc(Cl)c4nonc34)cccc12` [compound 387, N-(5-aminonaphthalen-1-yl)-7-chloro-2,1,3-benzoxadiazole-4-sulfonamide], the half-maximal inhibitory concentration (IC50) (as a rule, the concentration needed to halve the response being measured) against TRAF6/Uev1A/Ubc13 was ≥ 20 µM; in assay [1], 1 to 20 µM; on APC11/APC2, ≥ 20 µM.

In the case of `O=C(Nc1ccc([N+](=O)[O-])c2nonc12)c1cccc(F)c1F` [compound 427, 2,3-difluoro-N-(7-nitro-2,1,3-benzoxadiazol-4-yl)benzamide], the IC50 is ≥ 20 µM on TRAF6/Uev1A/Ubc13, 1 to 20 µM in assay [1] and ≥ 20 µM on APC11/APC2.

On to `CC(C)(C)c1ccc(-c2cc3cc(O)ccc3c3nonc23)cc1` [compound 454], for which the figures for the concentration for half-maximal inhibition (IC50) (against TRAF6/Uev1A/Ubc13; in assay [1]; against APC11/APC2) were ≥ 20 µM, ≥ 20 µM and 1 to 20 µM, respectively.

For `O=S(=O)(c1c(N2CCOCC2)cc(Cl)c2nonc12)N1CCOCC1` [compound 412, 7-chloro-5-(morpholin-4-yl)-4-{(morpholin-4-yl)sulfonyl}-2,1,3-benzoxadiazole], the figures for the IC50 (at TRAF6/Uev1A/Ubc13; in assay [1]; against APC11/APC2) were ≥ 20 µM, 1 to 20 µM and ≥ 20 µM, respectively.

With `Cc1cc2cc(NS(=O)(=O)c3ccc(Cl)c4nonc34)ccc2[nH]1` [compound 370, 7-chloro-N-(2-methyl-1H-indol-5-yl)-2,1,3-benzoxadiazole-4-sulfonamide], the concentration for half-maximal inhibition (IC50) at TRAF6/Uev1A/Ubc13 was ≥ 20 µM; in assay [1], 1 to 20 µM; against APC11/APC2 it was ≥ 20 µM.

Consider `CC(=O)c1ccc(-c2ccc([N+](=O)[O-])c3nonc23)cc1` [compound 441, 1-(4-[7-nitro-2,1,3-benzoxadiazol-4-yl]phenyl)ethanone], for which the IC50 (at TRAF6/Uev1A/Ubc13; in assay [1]; against APC11/APC2) was 1 to 20 µM in each case.

Regarding `O=C1OC2(CCN(S(=O)(=O)c3ccc(Cl)c4nonc34)CC2)c2ccccc21` [compound 332, 1′-{[7-chloro-(2,1,3-benzoxadiazol-4-yl)]sulfonyl}-3H-spiro[2-benzofuran-1,4′-piperidin]-3-one], the IC50 on TRAF6/Uev1A/Ubc13 was ≥ 20 µM; in assay [1], ≥ 20 µM; against APC11/APC2, 1 to 20 µM.

In the case of `CC(C)(C)c1ccc(-c2cc(-c3ccc(C(C)(C)C)cc3)c3nonc3c2)cc1` [compound 422, 4,6-bis(4-t-butylphenyl)-2,1,3-benzoxadiazole], the 50% inhibitory concentration (IC50) (against TRAF6/Uev1A/Ubc13; in assay [1]; against APC11/APC2) was ≥ 20 µM throughout.

Regarding `Fc1cc2nonc2c(N2CCOCC2)c1F` [compound 405, 5,6-difluoro-4-(morpholin-4-yl)-2,1,3-benzoxadiazole], the IC50 (against TRAF6/Uev1A/Ubc13; in assay [1]; against APC11/APC2) was ≥ 20 µM in each case.

With `COc1cccc(Nc2ccc3nonc3c2S(=O)(=O)Nc2cccc(OC)c2OC)c1OC` [compound 408, N-(2,3-dimethoxyphenyl)-5-([2,3-dimethoxyphenyl]amino)-2,1,3-benzoxadiazole-4-sulfonamide], the IC50 is ≥ 20 µM against TRAF6/Uev1A/Ubc13, 1 to 20 µM in assay [1] and ≥ 20 µM at APC11/APC2.

Regarding `COC(=O)c1ccc(NS(=O)(=O)c2ccc(Sc3ccc(O)cc3)c3nonc23)cc1` [compound 335, methyl 4-{[(7-{[4-hydroxyphenyl]thio}-2,1,3-benzoxadiazol-4-yl)sulfonyl]amino}benzoate], the half-maximal inhibitory concentration (IC50) (at TRAF6/Uev1A/Ubc13; in assay [1]; against APC11/APC2) was ≥ 20 µM each time.

As to `COc1cccc(-c2cc(-c3cccc(OC)c3)c3nonc3c2)c1` [compound 421, 4,6-bis(3-methoxyphenyl)-2,1,3-benzoxadiazole], the IC50 (against TRAF6/Uev1A/Ubc13; in assay [1]; on APC11/APC2) was ≥ 20 µM in each case.

Consider `O=S(=O)(Nc1cccc(F)c1F)c1ccc(Sc2cccc3cccnc23)c2nonc12` [compound 376, N-(2,3-difluorophenyl)-7-(quinolin-8-ylthio)-2,1,3-benzoxadiazole-4-sulfonamide], for which the IC50 is ≥ 20 µM against TRAF6/Uev1A/Ubc13, ≥ 20 µM in assay [1] and 1 to 20 µM against APC11/APC2.

Consider `Cc1ccc(-c2ccc([N+](=O)[O-])c3nonc23)cc1C` [compound 472, 4-(3,4-dimethylphenyl)-7-nitro-2,1,3-benzoxadiazole], for which the IC50 (on TRAF6/Uev1A/Ubc13; in assay [1]; against APC11/APC2) was 1 to 20 µM throughout.

Take `Cc1ccc(C)c(-c2ccc([N+](=O)[O-])c3nonc23)c1` [compound 471, 4-(2,5-dimethylphenyl)-7-nitro-2,1,3-benzoxadiazole]: the IC50 against TRAF6/Uev1A/Ubc13 is ≥ 20 µM; in assay [1], 1 to 20 µM; against APC11/APC2 it was 1 to 20 µM.

Regarding `Cc1cccc(-c2cc([N+](=O)[O-])cc3nonc23)c1` [compound 478, 6-nitro-4-m-tolyl-2,1,3-benzoxadiazole], the IC50 at TRAF6/Uev1A/Ubc13 was ≥ 20 µM; in assay [1], 1 to 20 µM; at APC11/APC2 it was 1 to 20 µM.

As for `O=S(=O)(Nc1cccc(F)c1F)c1ccc(Sc2cccc3ccccc23)c2nonc12` [compound 379, N-(2,3-difluorophenyl)-7-(naphthalen-1-ylthio)-2,1,3-benzoxadiazole-4-sulfonamide], the half-maximal inhibitory concentration (IC50) is 1 to 20 µM at TRAF6/Uev1A/Ubc13, ≥ 20 µM in assay [1] and 1 to 20 µM at APC11/APC2.

For the compound `FC(F)(F)c1ccc(-c2cc(-c3ccc(C(F)(F)F)cc3)c3nonc3c2)cc1` [compound 420, 4,6-bis(4-[trifluoromethyl]phenyl)-2,1,3-benzoxadiazole], the 50% inhibitory concentration (IC50) (against TRAF6/Uev1A/Ubc13; in assay [1]; on APC11/APC2) was ≥ 20 µM in each case.

Take `O=S(=O)(Nc1ccc(O)c2ccccc12)c1ccc(Cl)c2nonc12` [compound 393, 7-chloro-N-(4-hydroxynaphthalen-1-yl)-2,1,3-benzoxadiazole-4-sulfonamide]: the half-maximal inhibitory concentration (IC50) (on TRAF6/Uev1A/Ubc13; in assay [1]; against APC11/APC2) was 1 to 20 µM in each case.

For `COc1cc(Cl)c(C)cc1NS(=O)(=O)c1ccc(Cl)c2nonc12` [compound 362, 7-chloro-N-(4-chloro-2-methoxy-5-methylphenyl)-2,1,3-benzoxadiazole-4-sulfonamide], the results for the concentration for half-maximal inhibition (IC50) (on TRAF6/Uev1A/Ubc13; in assay [1]; on APC11/APC2) were ≥ 20 µM, 1 to 20 µM and ≥ 20 µM, respectively.

On to `O=C1CCCN1CCCNS(=O)(=O)c1ccc(Cl)c2nonc12` [compound 456, 7-chloro-N-(3-[2-oxopyrrolidin-1-yl]propyl)-2,1,3-benzoxadiazole-4-sulfonamide], for which the concentration for half-maximal inhibition (IC50) (against TRAF6/Uev1A/Ubc13; in assay [1]; against APC11/APC2) was ≥ 20 µM in each case.

Take `Nc1cccc2c(NS(=O)(=O)c3ccc(N4CCOCC4)c4nonc34)cccc12` [compound 389]: the concentration for half-maximal inhibition (IC50) (against TRAF6/Uev1A/Ubc13; in assay [1]; against APC11/APC2) was ≥ 20 µM throughout.

On to `O=S(=O)(Nc1ncccc1OCc1ccccc1)c1ccc(Cl)c2nonc12` [compound 380, N-(3-benzyloxypyridin-2-yl)-7-chloro-2,1,3-benzoxadiazole-4-sulfonamide], for which the figures for the IC50 (against TRAF6/Uev1A/Ubc13; in assay [1]; against APC11/APC2) were ≥ 20 µM, 1 to 20 µM and ≥ 20 µM, respectively.

Turning to `COC(=O)c1ccc(Cl)cc1NS(=O)(=O)c1ccc(Cl)c2nonc12` [compound 360, methyl 4-chloro-2-{[(7-chloro-2,1,3-benzoxadiazol-4-yl)sulfonyl]amino}benzoate], the 50% inhibitory concentration (IC50) was ≥ 20 µM at TRAF6/Uev1A/Ubc13, 1 to 20 µM in assay [1] and ≥ 20 µM on APC11/APC2.

These data come from patent US20050282818A1, “Ubiquitin ligase inhibitors” (Rigel Pharmaceuticals, Inc., priority 2004, published 2005).
